Measurements from patent publication US20060223827A1, “Bioreductively activated stilbene prodrugs” (Siemens Aktiengesellschaft, priority 2003, published 2006).

Key:
[1] = Radiolysis (steady state): release of combretastatin A4 after one-electron reduction; format: physicochemical; conditions: isopropanol/water 50:50, N2O-saturated, 60Co source 3.9 Gy min^−1, HPLC
Experimental: In the hypoxic environments of solid tumours, prodrugs can be reduced by one-electron processes that are inhibited in the normoxic environments of normal tissues.
Compounds were dissolved in an isopropanol/water mixture (50:50) at a concentration of 50 μM or below. Solutions, in gas-tight syringes, were saturated with nitrous oxide before irradiation in a ^60Co source at a dose rate of 3.9 Gy min^−1 (as determined by Fricke dosimetry: H. Fricke and E. J. Hart, “Chemical Dosimetry” in Radiation Dosimetry Vol. 2 (F. H. Attrix and W. C. Roesch. Eds.), pp 167-239. Academic Press New York, 1966.). Solutions were analysed for released drug by HPLC. The radiation chemical yields (G-values) of combretastatin A4 release obtained in this assay for selected example compounds are shown in Table 1.

Row | SMILES | G (radiation chemical yield of combretastatin A4 release) [1] | melting point
1 | COc1ccc(/C=C\c2cc(OC)c(OC)c(OC)c2)cc1OCc1ccc([N+](=O)[O-])s1 [Example 1, 1-(4-Methoxy-3-(5-nitrothien-2-yl)methoxy)phenyl-2-(3,4,5-trimethoxy)phenyl-Z-ethene] | 0.23 µmol/J | 88 to 90 °C
2 | COc1ccc(/C=C\c2cc(OC)c(OC)c(OC)c2)cc1OC(C)c1ccc([N+](=O)[O-])s1 (stereo not drawn) [Example 2, 1-(4-Methoxy-3-(1-(5-nitrothien-2-yl)ethoxy))phenyl-2-(3,4,5-trimethoxy)phenyl-Z-ethene] | 0.33 µmol/J | 
3 | COC1=CC(=O)c2c(c(COc3cc(/C=C\c4cc(OC)c(OC)c(OC)c4)ccc3OC)c(C)n2C)C1=O [Example 4, 5-Methoxy-3-((3,4,4′,5-tetramethoxy-(Z)-stilbene-3′-yl)oxy)methyl-1,2-dimethylindole-4,7-dione] | 0.44 µmol/J | 192 to 194 °C
4 | COc1ccc(/C=C\c2cc(OC)c(OC)c(OC)c2)cc1OCc1c2c(n(C)c1C)C(=O)C=C(N1CCN(C)CC1)C2=O [Example 5, 3-((3,4,4′,5-Tetramethoxy-(Z)-stilbene-3′-yl)oxy)methyl-1,2-dimethyl-5-(4 methylpiperazin-1-yl)indole-4,7-dione] | 0.34 µmol/J | 
